The structures appear in SMILES notation. pIC50: −log10 of the molar value.

The pIC50 is the negative decadic logarithm of the IC50, by convention in mol/L.

This assay deals with T1, human EP3 receptor (Homo sapiens, UniProt P43115).
T1 construct: expressed in transfected cells; host or cells: CHO K1 (Chinese Hamster Ovary), stably co-transfected with Galpha16 and mitochondrial clytin
T1 sequence (P43115 1-390): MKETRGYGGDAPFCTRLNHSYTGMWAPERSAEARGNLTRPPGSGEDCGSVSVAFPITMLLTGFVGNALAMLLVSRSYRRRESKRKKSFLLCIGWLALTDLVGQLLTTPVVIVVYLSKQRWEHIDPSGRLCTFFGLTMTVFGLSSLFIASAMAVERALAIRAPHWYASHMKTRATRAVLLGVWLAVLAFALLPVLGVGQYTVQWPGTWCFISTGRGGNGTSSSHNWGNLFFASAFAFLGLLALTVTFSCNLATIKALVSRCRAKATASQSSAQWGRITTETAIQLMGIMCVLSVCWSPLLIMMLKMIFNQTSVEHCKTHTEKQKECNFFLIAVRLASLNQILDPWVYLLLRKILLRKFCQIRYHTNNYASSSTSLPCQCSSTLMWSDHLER
In words: Cellular in vitro assay for determining EP3 receptor activity (human EP3 cell line, sulprostone-stimulated calcium luminescence). It is filed as cell-based. The following applies: CHO cells expressing human EP3 and mitochondrial Clytin; antagonist mode, sulprostone at EC50; read-out: EP3 CHO mtCLY ANTAG IC50. The essentials: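 Antagonist activity was measured as inhibition of the luminescent calcium signal elicited by EC50 sulprostone, following 10 min compound pretreatment. The cell line was recombinant CHO K1 co-expressing human EP3, Gα16 and the photoprotein Clytin, reconstituted with coelenterazine.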
Regarding `Cc1ccc(-c2[nH]c(=O)c3c(C4CC4)c(C(=O)N[C@@H](c4ccc(F)cc4)C(C)(C)O)nn3c2F)cc1Cl` [6-664], the pIC50 is 8.28. Turning to `Cc1cccc2ncc(-c3cn4nc(C(=O)NC(C)c5ccccc5OC(F)F)c(C(C)C)c4c(=O)[nH]3)cc12` (stereo not shown) [Example 4-46, N-{1-[2-(Difluoromethoxy)phenyl]ethyl}-3-isopropyl-6-(5-methylquinolin-3-yl)-4-oxo-4,5-dihydropyrazolo[1,5-a]pyrazine-2-carboxamide], the pIC50 is 8.98. Then `COc1ccc(C(C)NC(=O)c2cc3c(=O)[nH]c(-c4ccc5ccccc5n4)cn3n2)cn1` (stereo not shown) [Example 1-106, N-[1-(6-Methoxypyridin-3-yl)ethyl]-4-oxo-6-(quinolin-2-yl)-4,5-dihydropyrazolo[1,5-a]pyrazine-2-carboxamide], with 8.25; and `CC(C)(O)[C@@H](NC(=O)c1nn2cc(-c3ccc(Cl)c(C(F)F)c3)[nH]c(=O)c2c1C1CC1)c1ccc(F)cc1` [6-666], with 8.85.

On to `Cc1ccc(-c2cn3nc(C(=O)N[C@H](C)C4CC4)c(C(F)(F)F)c3c(=O)[nH]2)cc1Cl` [6-172], for which the pIC50 was 8.77. Then `COC[C@@H](NC(=O)c1cc2c(=O)[nH]c(-c3ccc(C)c(C)c3)cn2n1)c1ccccc1` [Example 1-13, 6-(3,4-Dimethylphenyl)-N-[(1S)-2-methoxy-1-phenylethyl]-4-oxo-4,5-dihydropyrazolo[1,5-a]-pyrazine-2-carboxamide], with 8.94.

On to `Cc1ccc(-c2cn3nc(C(=O)N[C@@H](c4ccc(F)cc4)C(C)(C)O)c(C4CC4)c3c(=O)[nH]2)cc1F` [Example 1-158], for which the negative logarithm of the IC50 (pIC50) was 9.01. As to `Cc1ccc(-c2cn3nc(C(=O)NC[C@@]4(C5CC5)NC(=O)NC4=O)c(C4CC4)c3c(=O)[nH]2)cc1C` [6-456], the pIC50 was 8.23. `COCc1c(C(=O)N[C@H](CCO)c2ccc(F)cc2)nn2cc(-c3ccc4ccccc4c3)[nH]c(=O)c12` [Example 1-55, N-[(1R)-1-(4-Fluorophenyl)-3-hydroxopyl]-3-(methoxymethyl)-6-(naphthalen-2-yl)-4-oxo-4,5-dihydropyrazolo[1,5-a]pyrazine-2-carboxamide]: the pIC50 is 9.31. Then `O=C(NC1CCN(C2CC2)C1)c1nn2cc(-c3ccc4ccccc4c3)[nH]c(=O)c2c1C(F)(F)F` (single isomer, unassigned) [6-500], with 8.17. Then `Cn1cc(CNC(=O)c2nn3cc(-c4ccc5ccccc5c4)[nH]c(=O)c3c2C#N)cn1` [Example 3-45, 3-Cyano-N-[(1-methyl-1H-pyrazol-4-yl)methyl]-6-(naphthalen-2-yl)-4-oxo-4,5-dihydropyrazolo[1,5-a]pyrazine-2-carboxamide], with 8.06; and `Cc1ccc(-c2cn3nc(C(=O)N[C@@H](CCO)c4ccc(F)cc4)cc3c(=O)[nH]2)cc1C` [Example 1-70, 6-(3,4-Dimethylphenyl)-N-[(1S)-1-(4-fluorophenyl)-3-hydroxpropyl]-4-oxo-4,5-dihydropyrazolo-[1,5-a]pyrazine-2-carboxamide], with 8.50. `CC(C)(O)[C@@H](NC(=O)c1nn2cc(-c3ccc4ccccc4c3)[nH]c(=O)c2c1C#N)c1ccc(F)cc1` [6-110]: the pIC50 was 8.40.

`Cc1cc(-c2cn3nc(C(=O)NCC(O)C(F)(F)F)c(C4CC4)c3c(=O)[nH]2)ccc1F` (single isomer, unassigned) [6-655]: the pIC50 was 8.03.

Take `C[C@@H](NC(=O)c1cc2c(=O)[nH]c(-c3ccc4ccccc4c3)cn2n1)c1ccc(C(F)(F)F)cc1` [Example 1-1, 6-(Naphthalen-2-yl)-4-oxo-N-{(1R)-1-[4-(trifluoromethyl)phenyl]ethyl}-4,5-dihydropyrazolo[1,5-a]-pyrazine-2-carboxamide]: the pIC50 is 8.80. Then `Cc1cc(-c2cn3nc(C(=O)NCC(C)(N)C(F)(F)F)c(C4CC4)c3c(=O)[nH]2)ccc1Cl` (single isomer, unassigned) [6-321], with 8.77; and `Cc1ccc(-c2cn3nc(C(=O)N[C@@H](c4ccccc4)C(C)(C)O)cc3c(=O)[nH]2)cc1C` [Example 1-54, 6-(3,4-Dimethylphenyl)-N-[(1S)-2-hydroxy-2-methyl-1-phenylpropyl]-4-oxo-4,5-dihydropyrazolo-[1,5-a]pyrazine-2-carboxamide], with 8.44. On to `Cc1cccc2ncc(-c3cn4nc(C(=O)NCC5CNC(=O)O5)c(C(C)C)c4c(=O)[nH]3)cc12` (stereo not shown) [Example 4-42, 3-Isopropyl-6-(5-methyl-3-quinolyl)-4-oxo-N-[(2-oxooxazolidin-5-yl)methyl]-5H-pyrazolo[1,5-a]pyrazine-2-carboxamide], for which the pIC50 was 8.35. As for `Cc1ccc(-c2cn3nc(C(=O)N[C@H](CCO)c4ccc(F)cc4)c(C)c3c(=O)[nH]2)cc1F` [6-408], the figure is 8.99. Then `Cc1c(C(=O)NCCOCC(F)(F)F)nn2c(C)c(-c3ccc4ccccc4c3)[nH]c(=O)c12` [Example 3-3, 3,7-Dimethyl-6-(naphthalen-2-yl)-4-oxo-N-[2-(2,2,2-trifluoroethoxy)ethyl]-4,5-dihydropyrazolo[1,5-a]pyrazine-2-carboxamide], with 8.27; and `CC(C)(C)OC(=O)NCC(NC(=O)c1cc2c(=O)[nH]c(-c3ccc4cccnc4c3)cn2n1)c1ccc(F)cc1` (stereo not shown) [6-29], with 8.64. Take `Cc1cccc(C)c1OCC(C)NC(=O)c1cc2c(=O)[nH]c(-c3ccc4ccccc4c3)cn2n1` (stereo not shown) [Example 2-30, N-[1-(2,6-Dimethylphenoxy)propan-2-yl]-6-(2-naphthyl)-4-oxo-4,5-dihydropyrazolo[1,5-a]pyrazine-2-carboxamide]: the pIC50 is 8.26. As for `Cc1c(C(=O)N[C@@H](C)c2cnccn2)nn2c(C)c(-c3ccc4ccccc4c3)[nH]c(=O)c12` [Example 3-66, 3,7-Dimethyl-6-(naphthalen-2-yl)-4-oxo-N-[(7S)-1-(pyrazin-2-yl)ethyl]-4,5-dihydropyrazolo[1,5-a]pyrazine-2-carboxamide], the figure is 8.13. As for `COCc1c(C(=O)N[C@@H](c2ccc(F)cc2)C(F)(F)CO)nn2cc(-c3ccc(C)c(Cl)c3)[nH]c(=O)c12` [6-626], the figure is 8.99. As for `C[C@@H](CO)NC(=O)c1nn2cc(-c3ccc(Cl)c(Cl)c3)[nH]c(=O)c2c1C1CC1` [6-414], the figure is 8.26; as for `O=C(NC(CO)c1cc(Cl)cc(Cl)c1)c1cc2c(=O)[nH]c(-c3ccc4ccccc4c3)cn2n1` (stereo not shown) [Example 2-26, N-[1-(3,5-Dichlorophenyl)-2-hydroxyethyl]-6-(2-naphthyl)-4-oxo-4,5-dihydropyrazolo[1,5-a]pyrazine-2-carboxamide], 8.58; as for `COc1ccc([C@H](CCO)NC(=O)c2nn3cc(-c4ccc5ccccc5c4)[nH]c(=O)c3c2C#N)cc1` [Example 3-63, 3-Cyano-N-[(1S)-3-hydroxy-1-(4-methoxyphenyl)propyl]-6-(naphthalen-2-yl)-4-oxo-4,5-dihydropyrazolo[1,5-a]pyrazine-2-carboxamide], 8.41. `O=C(NCc1nc2ccccc2[nH]1)c1cc2c(=O)[nH]c(-c3ccc4ccccc4c3)cn2n1` [Example 2-24, N-(1H-Benzimidazol-2-ylmethyl)-6-(2-naphthyl)-4-oxo-4,5-dihydropyrazolo[1,5-a]pyrazine-2-carboxamide]: the pIC50 is 8.61. Then `Cc1ccc(-c2cn3nc(C(=O)NC(CO)C(F)(F)F)c(C4CC4)c3c(=O)[nH]2)cc1F` (racemic) [6-392], with 8.36; and `Cc1c(C(=O)NC2CCc3ccccc32)nn2c(C)c(-c3ccc4ccccc4c3)[nH]c(=O)c12` (stereo not shown) [Example 3-75, N-(2,3-Dihydro-1H-inden-1-yl)-3,7-dimethyl-6-(2-naphthyl)-4-oxo-4,5-dihydropyrazolo[1,5-a]pyrazine-2-carboxamide], with 8.19; and `O=C(NC(CO)(CO)C(F)(F)F)c1nn2cc(-c3ccc4ccccc4c3)[nH]c(=O)c2c1C(F)(F)F` [6-498], with 8.15. As for `Cc1ccc([C@@H](C)NC(=O)c2nn3cc(-c4ccc5ccccc5c4)[nH]c(=O)c3c2C#N)cc1` [Example 3-53, 3-Cyano-N-[(7R)-1-(4-methylphenyl)ethyl]-6-(naphthalen-2-yl)-4-oxo-4,5-dihydropyrazolo[1,5-a]pyrazine-2-carboxamide], the figure is 8.84; as for `Cc1ccc(-c2cn3nc(C(=O)NCC(C)(C)O)c(C4CC4)c3c(=O)[nH]2)cc1Cl` [6-285], 8.47; as for `C[C@H](CO)NC(=O)c1nn2cc(-c3ccc4ccccc4c3)[nH]c(=O)c2c1C(F)(F)F` [6-525], 8.11. Then `COc1cc(-c2cn3nc(C(=O)N[C@@H](c4ccc(F)cc4)C(C)(C)O)c(C4CC4)c3c(=O)[nH]2)ccc1Cl` [6-484], with 8.74. `CN1CC(NC(=O)c2nn3cc(-c4ccc5c(c4)OCCO5)[nH]c(=O)c3c2C2CC2)(c2ccc(F)cc2)C1` [6-467]: the pIC50 is 8.63. As for `O=C(NC(c1ccccc1)C(F)F)c1cc2c(=O)[nH]c(-c3ccc4c(c3F)OCCO4)cn2n1` (stereo not shown) [Example 1-110, N-(2,2-Difluoro-1-phenylethyl)-6-(5-fluoro-2,3-dihydro-1,4-benzodioxin-6-yl)-4-oxo-4,5-dihydro-pyrazolo[1,5-a]pyrazine-2-carboxamide], the figure is 9.00.

Source of the values: patent publication US20220324865A1 (Bayer Aktiengesellschaft, priority 2018, published 2022).
